Key:
[1] = test system: K1 capsule biogenesis in E. coli UTI89; assay type: cell-based, Escherichia coli; details: average of at least 3 replicates ± SEM, read-out: IC50 K1 phage
Description: The primary assay consisted of detection of the presence and absence of the K1 capsule on the E. coli urinary tract isolate UTI89 under growth conditions with compounds from a large chemical library. The assay was conducted as previously described with the following modifications. The primary assay was conducted in 1,536-well plate format. UTI89 ΔkpsM, an isogenic K1 capsule export mutant, was included as an unencapsulated control. Tetracycline, 50 µM, was used as a negative growth control. A 1∶75 dilution of overnight cultures were made in LB broth containing 0.5% DMSO, and 3 µL of this culture was added to each plate well, and plates were incubated, inverted, at 37°C for 2 hr. […]. The plates were centrifuged briefly, and then were incubated, inverted, at 37°C for an additional 2 hr. […] Resorufin fluorescence was measured using excitation of 560 nm and emission of 590 nm, as per the manufacturer's recommendations.
Concentration-response testing (concentration range = 0.58–300 µM) was used to confirm and characterize the primary screen hits, which was necessary to determine the number of compounds advanced to secondary screens. […] The strain UTI89 ΔkpsM, a K1 capsule export mutant, was evaluated with the wild-type strain as a phage-insensitive control (mimicking 100% capsule inhibition).

[2] = test system: E. coli strains 536 (K15), CFT073 (K2), DS17 (K5), UTI89 (K1); assay: Visualization of capsule using Alcian blue staining; assay type: cell-based, Escherichia coli; details: 200 µM
Adrenergic α1A = target: T1, Adrenergic α1A (Rattus norvegicus, UniProt P43140); assay: Radioligand binding 203100; details: 10 µM
T1 construct: Wistar Rat submaxillary gland; tissue Eurofins Panlabs (assay Cat #) 203100; host or cells: Wistar rat submaxillary gland

Adrenergic α1B = target: T2, Adrenergic α1B (Rattus norvegicus, UniProt P15823); assay type: binding; details: 10 µM
T2 construct: Wistar Rat liver; tissue Eurofins Panlabs (assay Cat #) 203200; host or cells: Wistar rat liver

Adrenergic β2 = target: T3, Adrenergic β2 (Homo sapiens, UniProt P07550); assay type: binding; details: 10 µM
T3 construct: host or cells: CHO cells

[3] = target: T4, Androgen (Testosterone) AR (Rattus norvegicus, UniProt P15207); assay type: binding; details: 10 µM
T4 construct: Eurofins Panlabs (assay Cat #) 285010; host or cells: E. coli

[4] = target: Calcium Channel L-Type, Dihydropyridine (Rattus norvegicus, UniProt P22002); assay type: binding; details: 10 µM
[5] = test system: GABAA, Flunitrazepam, Central; assay: Radioligand binding 226600; design: species or system rat; details: 10 µM
Glutamate, Kainate = assay: Radioligand binding 232700; design: species or system rat; details: 10 µM
[6] = test system: Glutamate, NMDA, Phencyclidine; assay: Radioligand binding 233000; design: species or system rat; details: 10 µM
Imidazoline I2, Central = assay: Radioligand binding 241000; design: species or system rat; details: 10 µM
Muscarinic M2 = target: T5, Muscarinic M2 (Homo sapiens, UniProt P08172); assay: Radioligand binding 252710; details: 10 µM
T5 construct: host or cells: CHO-K1 cells

Neuropeptide Y Y1 = target: T6, Neuropeptide Y Y1 (Homo sapiens, UniProt P25929); assay: Radioligand binding 257010; details: 10 µM
T6 construct: Human SK-N-MC cells; host or cells: SK-N-MC cells

[7] = target: Nicotinic Acetylcholine α1, Bungarotoxin (Homo sapiens, UniProt P02708+P07510+Q07001); assay type: binding; details: 10 µM
Rolipram = assay: Radioligand binding 270000; design: species or system rat; details: 10 µM
[8] = target: T7, Transporter, Serotonin (5-Hydroxytryptamine) (SERT) (Homo sapiens, UniProt P31645); assay type: binding; details: 10 µM
T7 construct: host or cells: HEK-293

Glucocorticoid = Glucocorticoid (Homo sapiens, UniProt P04150); assay: Radioligand binding 232030; design: host or cells: insect cells; details: 10 µM
Histamine H2 = Histamine H2 (Homo sapiens, UniProt P25021); assay: Radioligand binding 239710; design: host or cells: CHO-K1 cells; details: 10 µM
Chain of Histamine H2 (P25021 whole entry): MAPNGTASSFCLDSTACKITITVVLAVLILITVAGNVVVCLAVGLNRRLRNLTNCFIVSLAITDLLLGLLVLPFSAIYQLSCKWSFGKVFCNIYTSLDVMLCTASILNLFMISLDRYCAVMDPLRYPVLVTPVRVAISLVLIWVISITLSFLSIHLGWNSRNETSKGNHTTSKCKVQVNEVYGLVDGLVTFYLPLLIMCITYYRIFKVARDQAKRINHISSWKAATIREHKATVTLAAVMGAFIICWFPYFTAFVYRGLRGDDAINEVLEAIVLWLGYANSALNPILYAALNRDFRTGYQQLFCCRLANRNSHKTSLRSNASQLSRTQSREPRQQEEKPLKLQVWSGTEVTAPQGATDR

T3 sequence (P07550 whole entry): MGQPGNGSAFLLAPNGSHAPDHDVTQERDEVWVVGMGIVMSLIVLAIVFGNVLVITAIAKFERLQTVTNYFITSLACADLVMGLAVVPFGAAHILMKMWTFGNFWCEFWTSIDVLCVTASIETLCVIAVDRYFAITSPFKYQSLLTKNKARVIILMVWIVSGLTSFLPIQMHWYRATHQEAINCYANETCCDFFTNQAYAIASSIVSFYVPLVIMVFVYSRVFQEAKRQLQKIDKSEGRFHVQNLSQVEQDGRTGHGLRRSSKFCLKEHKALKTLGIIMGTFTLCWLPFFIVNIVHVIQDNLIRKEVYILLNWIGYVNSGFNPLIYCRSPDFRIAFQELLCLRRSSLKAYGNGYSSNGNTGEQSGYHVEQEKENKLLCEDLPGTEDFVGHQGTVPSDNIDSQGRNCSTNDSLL
T4 sequence (P15207 607-902): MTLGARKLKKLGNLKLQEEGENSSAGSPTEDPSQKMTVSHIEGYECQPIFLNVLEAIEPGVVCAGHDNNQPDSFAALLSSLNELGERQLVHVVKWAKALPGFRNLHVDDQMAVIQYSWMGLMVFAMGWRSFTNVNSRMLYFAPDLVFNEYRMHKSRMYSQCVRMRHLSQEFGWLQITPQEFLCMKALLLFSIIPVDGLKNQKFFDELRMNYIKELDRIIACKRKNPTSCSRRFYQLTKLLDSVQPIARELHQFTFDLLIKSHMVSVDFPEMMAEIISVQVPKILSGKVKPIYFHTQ
Chain of Calcium Channel L-Type, Dihydropyridine (P22002 whole entry): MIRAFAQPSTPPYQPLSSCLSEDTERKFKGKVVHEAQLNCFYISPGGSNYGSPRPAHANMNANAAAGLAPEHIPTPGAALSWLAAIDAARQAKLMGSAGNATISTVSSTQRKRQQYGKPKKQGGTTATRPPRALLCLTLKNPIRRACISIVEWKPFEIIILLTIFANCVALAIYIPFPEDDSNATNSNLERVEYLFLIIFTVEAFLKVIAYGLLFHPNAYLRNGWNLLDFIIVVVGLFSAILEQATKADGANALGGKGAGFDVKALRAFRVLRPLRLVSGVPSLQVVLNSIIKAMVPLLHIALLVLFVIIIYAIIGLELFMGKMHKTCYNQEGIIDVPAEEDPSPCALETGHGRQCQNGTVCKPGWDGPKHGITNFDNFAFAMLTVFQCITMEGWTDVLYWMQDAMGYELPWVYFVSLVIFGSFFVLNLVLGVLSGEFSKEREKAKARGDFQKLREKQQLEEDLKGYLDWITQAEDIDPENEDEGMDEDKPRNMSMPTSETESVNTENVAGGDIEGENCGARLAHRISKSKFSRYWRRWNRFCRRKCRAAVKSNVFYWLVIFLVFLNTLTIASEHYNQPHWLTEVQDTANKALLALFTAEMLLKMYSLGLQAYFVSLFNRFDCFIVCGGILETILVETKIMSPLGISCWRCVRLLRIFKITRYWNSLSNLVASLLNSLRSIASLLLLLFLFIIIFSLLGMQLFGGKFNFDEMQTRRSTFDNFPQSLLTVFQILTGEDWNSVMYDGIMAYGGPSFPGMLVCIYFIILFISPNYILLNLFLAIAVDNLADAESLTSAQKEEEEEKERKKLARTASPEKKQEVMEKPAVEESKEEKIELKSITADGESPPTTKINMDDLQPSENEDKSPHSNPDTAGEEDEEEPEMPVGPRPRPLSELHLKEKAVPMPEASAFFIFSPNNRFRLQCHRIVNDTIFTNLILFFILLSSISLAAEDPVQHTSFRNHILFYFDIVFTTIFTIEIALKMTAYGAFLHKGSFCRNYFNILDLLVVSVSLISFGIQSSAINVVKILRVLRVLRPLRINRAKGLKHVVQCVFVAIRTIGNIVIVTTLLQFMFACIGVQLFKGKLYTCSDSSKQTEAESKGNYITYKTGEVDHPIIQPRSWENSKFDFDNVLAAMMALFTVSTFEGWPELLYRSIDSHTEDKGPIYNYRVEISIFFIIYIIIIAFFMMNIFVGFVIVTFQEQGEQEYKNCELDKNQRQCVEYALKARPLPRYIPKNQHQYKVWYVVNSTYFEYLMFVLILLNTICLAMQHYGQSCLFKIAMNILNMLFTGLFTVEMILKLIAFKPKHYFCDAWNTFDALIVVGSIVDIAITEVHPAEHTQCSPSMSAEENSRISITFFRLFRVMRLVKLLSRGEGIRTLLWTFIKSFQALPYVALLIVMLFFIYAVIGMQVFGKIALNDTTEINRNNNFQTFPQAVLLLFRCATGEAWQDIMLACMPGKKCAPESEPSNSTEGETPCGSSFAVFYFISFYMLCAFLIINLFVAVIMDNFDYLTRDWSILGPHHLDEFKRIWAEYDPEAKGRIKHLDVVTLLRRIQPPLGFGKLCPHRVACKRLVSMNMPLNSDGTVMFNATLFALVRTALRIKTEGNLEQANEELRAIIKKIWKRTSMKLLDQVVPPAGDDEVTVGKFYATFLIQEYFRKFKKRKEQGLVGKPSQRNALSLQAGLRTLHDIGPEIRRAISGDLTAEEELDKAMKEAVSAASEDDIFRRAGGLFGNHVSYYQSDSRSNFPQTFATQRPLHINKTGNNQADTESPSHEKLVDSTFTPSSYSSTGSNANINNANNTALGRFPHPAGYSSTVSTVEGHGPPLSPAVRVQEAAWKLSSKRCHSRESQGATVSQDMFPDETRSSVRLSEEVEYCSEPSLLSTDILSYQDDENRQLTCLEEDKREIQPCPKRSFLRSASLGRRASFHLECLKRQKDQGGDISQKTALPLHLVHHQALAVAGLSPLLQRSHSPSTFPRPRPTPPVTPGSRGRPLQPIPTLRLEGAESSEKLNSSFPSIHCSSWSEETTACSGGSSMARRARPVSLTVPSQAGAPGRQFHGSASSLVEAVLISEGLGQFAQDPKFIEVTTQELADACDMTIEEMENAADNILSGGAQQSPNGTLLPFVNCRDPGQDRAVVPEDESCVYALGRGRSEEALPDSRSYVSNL
T6 sequence (P25929 whole entry): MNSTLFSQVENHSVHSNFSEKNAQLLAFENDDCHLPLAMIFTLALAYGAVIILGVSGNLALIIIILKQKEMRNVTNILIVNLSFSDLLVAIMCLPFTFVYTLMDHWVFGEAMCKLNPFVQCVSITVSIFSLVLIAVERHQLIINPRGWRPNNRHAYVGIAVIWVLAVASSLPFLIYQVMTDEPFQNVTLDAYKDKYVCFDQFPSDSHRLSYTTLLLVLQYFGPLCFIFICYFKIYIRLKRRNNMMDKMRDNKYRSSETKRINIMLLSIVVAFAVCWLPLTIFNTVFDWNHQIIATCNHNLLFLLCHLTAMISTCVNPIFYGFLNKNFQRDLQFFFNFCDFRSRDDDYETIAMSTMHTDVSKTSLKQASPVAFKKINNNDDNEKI
T2 sequence (P15823 whole entry): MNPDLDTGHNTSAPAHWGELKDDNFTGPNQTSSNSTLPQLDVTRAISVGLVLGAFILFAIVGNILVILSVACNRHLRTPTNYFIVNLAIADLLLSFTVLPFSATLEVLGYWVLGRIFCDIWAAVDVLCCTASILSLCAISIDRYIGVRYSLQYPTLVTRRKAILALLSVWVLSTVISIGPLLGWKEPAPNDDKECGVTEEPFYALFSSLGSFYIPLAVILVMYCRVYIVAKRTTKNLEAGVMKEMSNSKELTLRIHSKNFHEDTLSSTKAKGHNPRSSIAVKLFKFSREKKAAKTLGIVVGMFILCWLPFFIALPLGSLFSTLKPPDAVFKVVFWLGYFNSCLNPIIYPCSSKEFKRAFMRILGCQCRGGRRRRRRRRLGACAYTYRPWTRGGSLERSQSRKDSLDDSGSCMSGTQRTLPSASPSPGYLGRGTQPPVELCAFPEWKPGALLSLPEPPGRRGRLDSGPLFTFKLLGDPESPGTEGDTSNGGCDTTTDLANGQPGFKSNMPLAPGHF
T5 sequence (P08172 whole entry): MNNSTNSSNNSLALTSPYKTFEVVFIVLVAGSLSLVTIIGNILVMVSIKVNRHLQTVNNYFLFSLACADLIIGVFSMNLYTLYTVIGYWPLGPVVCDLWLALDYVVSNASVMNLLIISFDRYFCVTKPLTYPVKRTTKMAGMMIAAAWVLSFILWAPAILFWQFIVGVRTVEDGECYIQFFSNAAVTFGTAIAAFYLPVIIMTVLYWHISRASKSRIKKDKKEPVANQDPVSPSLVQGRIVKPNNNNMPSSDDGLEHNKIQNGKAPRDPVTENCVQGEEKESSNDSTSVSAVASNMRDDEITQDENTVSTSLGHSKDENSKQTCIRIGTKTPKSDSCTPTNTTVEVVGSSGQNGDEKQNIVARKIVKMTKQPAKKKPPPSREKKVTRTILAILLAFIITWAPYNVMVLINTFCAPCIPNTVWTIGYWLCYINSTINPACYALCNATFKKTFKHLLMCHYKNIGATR

CCOc1ccc(-c2cc(NC(=O)c3c(F)cccc3F)c(C(=O)O)s2)cc1 [DU011]
IC50 [1]: 4.5 ± 2.5 µM | reduction in capsular material from CFT073 ([2]; CFT073 (K2 serotype)): slightly less than the other serotypes tested | capsular material, alcian blue stained gel ([2]; strains 536, CFT073, DS17, UTI89): capsule was reduced in each strain | % Inh. (Adrenergic α1A): -3% | % Inh. (Adrenergic α1B): 14% | % Inh. (Adrenergic β2): 8% | % Inh. [3]: 5% | % Inh. [4]: 18% | % Inh. [5]: 12% | % Inh. (Glutamate, Kainate): 3% | % Inh. [6]: 2% | % Inh. (Imidazoline I2, Central): -23% | % Inh. (Muscarinic M2): 5% | % Inh. (Neuropeptide Y Y1): 2% | % Inh. [7]: 8% | % Inh. (Rolipram): 3% | % Inh. [8]: 5% | % Inh. (Glucocorticoid): 16% | % Inh. (Histamine H2): 2%

Source: PMC4077706, “Lifting the Mask: Identification of New Small Molecule Inhibitors of Uropathogenic Escherichia coli Group 2 Capsule Biogenesis” (PLoS ONE, 2014)
